Reference: patent publication US7468393B2, “Diarylsulfones as 5-HT2A antagonists” (Merck Sharp & Dohme Ltd., priority 2004, dated 2008)

melting point: 75 °C
Structure (SMILES): C[C@H](O)c1ccccc1S(=O)(=O)c1ccc(/C=C/c2ccc(F)cc2)cc1 [Example 135, (1S)-1-[2-({4-[(E)-2-(4-fluorophenyl)vinyl]phenyl}sulfonyl)phenyl]ethanol]
